Assay results reported in patent publication US12152991B2, “Time-resolved laser-induced fluorescence spectroscopy systems and uses thereof” (Cedars-Sinai Medical Center, priority 2013, dated 2024).

Test system: rabbit brain tissue
Assay: Continuous NADH fluorescence monitoring (TRLIFS) in ex-vivo brain tissue exposed to Rotenone
Format: cell-based
Conditions: FIG. 6
Source text: In order to excite the tissue, a Q-switched Nd:YaG laser emitting at a wavelength of 350 nm was used, running at 1 KHz with a pulse width (FWHM) of 400 ps (Teem Photonics PNVM02510). […] The excitation light was delivered to the tissue using a custom made trifurcated optical probe. The probe consisted of a central 600 micron fiber for delivering the excitation light surrounded by twelve 200 micron fibers to collect the fluorescence (FIG. 3). Every other fiber from the twelve collection fibers were bundled together forming two channels. One collection channel/bundle connected to a spectrometer (Ocean Optics, Maya), which measured the fluorescence spectrum every 100 ms and the other channel/bundle connected to a beam splitter (demultiplexer). The beam splitter at 452 nm of wavelength separated the significant free and bound fluorescence, which was recorded both by MCP-PMT and spectrometer.
Rabbit brain was removed after sacrificing the animal in the OR and transported in cold oxygen rich Kreb-ringer solution to the laboratory. […] A baseline NADH (bound and free) was recorded till the fluorescence from the tissue equilibrated and plateaued. After approximately 30 mins, a measured dose of 50 nM rotenone, which blocks the binding of NADH to […] in the mitochondrion, was added. […]
The effect of various concentrations of Rotenone on the rabbit brain tissue was recorded (FIG. 6). […]

C=C(C)[C@H]1Cc2c(ccc3c2O[C@@H]2COc4cc(OC)c(OC)cc4[C@@H]2C3=O)O1 [Rotenone]
NADH level (fluorescence, free and bound) (ex-vivo rabbit brain cortex in Kreb-Ringer solution, 95% O2/5% CO2, 50 nM Rotenone added, excitation 350 nm): increase in NADH level
NADH fluorescence (ex-vivo rabbit brain cortex, increasing concentrations of Rotenone added every 10 mins): NADH fluorescence increased
